# Reference: PMC6438731, “Extrasynaptic δ‐GABAA receptors are high‐affinity muscimol receptors” (Journal of Neurochemistry, 2019)
# Read-outs that look alike come from different tables or passages of the source.
# Legend:
# [1] = target: T1, recombinant α4β3δ receptors (Homo sapiens, UniProt O14764+P28472+P48169); assay: Muscimol currents, two electrode voltage clamp in Xenopus oocytes, α4β3δ; assay type: cell-based
# T1 construct: expressed in transfected cells; host or cells: Xenopus laevis oocytes injected with cRNA
# T1 sequence (P48169 36-554): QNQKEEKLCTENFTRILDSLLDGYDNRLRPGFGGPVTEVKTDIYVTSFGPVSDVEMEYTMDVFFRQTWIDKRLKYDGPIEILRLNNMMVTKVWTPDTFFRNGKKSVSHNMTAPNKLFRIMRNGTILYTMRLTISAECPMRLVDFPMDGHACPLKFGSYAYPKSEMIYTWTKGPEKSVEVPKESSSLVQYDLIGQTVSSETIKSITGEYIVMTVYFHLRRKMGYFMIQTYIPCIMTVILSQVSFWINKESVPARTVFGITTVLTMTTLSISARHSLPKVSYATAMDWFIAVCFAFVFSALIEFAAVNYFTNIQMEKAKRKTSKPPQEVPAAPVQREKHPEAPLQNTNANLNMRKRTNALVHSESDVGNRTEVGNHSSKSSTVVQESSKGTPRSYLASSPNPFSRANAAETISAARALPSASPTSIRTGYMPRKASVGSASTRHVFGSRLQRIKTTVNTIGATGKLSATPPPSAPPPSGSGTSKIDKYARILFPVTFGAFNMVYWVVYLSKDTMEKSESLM
# T1 sequence (P28472 26-473): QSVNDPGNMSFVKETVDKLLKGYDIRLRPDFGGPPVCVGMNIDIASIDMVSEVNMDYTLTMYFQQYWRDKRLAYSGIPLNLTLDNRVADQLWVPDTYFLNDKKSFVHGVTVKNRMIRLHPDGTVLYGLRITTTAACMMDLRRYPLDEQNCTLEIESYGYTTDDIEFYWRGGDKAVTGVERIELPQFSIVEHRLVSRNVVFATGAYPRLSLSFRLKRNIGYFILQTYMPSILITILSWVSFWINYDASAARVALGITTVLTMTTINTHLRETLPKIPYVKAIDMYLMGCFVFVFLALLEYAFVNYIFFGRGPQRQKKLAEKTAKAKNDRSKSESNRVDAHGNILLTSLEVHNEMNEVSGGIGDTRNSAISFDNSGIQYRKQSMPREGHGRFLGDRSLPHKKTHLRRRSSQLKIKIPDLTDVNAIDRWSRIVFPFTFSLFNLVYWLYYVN
# T1 sequence (O14764 25-452): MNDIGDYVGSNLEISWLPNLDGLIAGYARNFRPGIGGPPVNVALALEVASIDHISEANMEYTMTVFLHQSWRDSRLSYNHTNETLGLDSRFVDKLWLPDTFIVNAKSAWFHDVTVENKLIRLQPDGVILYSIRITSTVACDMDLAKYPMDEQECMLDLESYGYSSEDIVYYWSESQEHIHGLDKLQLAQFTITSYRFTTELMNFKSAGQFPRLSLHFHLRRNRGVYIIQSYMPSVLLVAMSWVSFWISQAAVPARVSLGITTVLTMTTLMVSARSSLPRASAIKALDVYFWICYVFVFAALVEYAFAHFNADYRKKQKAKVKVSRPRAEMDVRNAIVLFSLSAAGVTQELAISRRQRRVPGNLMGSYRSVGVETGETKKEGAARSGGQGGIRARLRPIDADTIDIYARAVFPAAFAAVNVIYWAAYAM
# Excerpt: (§1) Human α4, α6, β3, and δ cDNA clones for oocyte expression were made by PCR amplification of the coding region (NcoI site introduced with the amplifying 5′ oligonucleotide at the ATG initiation codon) and a HindIII (or SpeI) containing oligo) and cloning it into a NcoI‐HindIII (or SpeI) cut vector backbone derived from pEGFP‐N1 (Addgene 6085‐1). The entire transcribed region was confirmed by sequencing to ensure that protein sequences conform to consensus sequences found in the RefSeq database (https://www.ncbi.nlm.gov/RefSeq). Plasmids were linearized with NotI (New England Biolabs) and cRNA was transcribed, using T7 RNA polymerase (Ambion, mMESSAGE mMACHINE T7 Transcription Kit, Ambion Austin TX, USA, Cat. No. 1344). Xenopus laevis (Nasco, product number LM00531) oocytes were prepared from oocyte lobes shared by Dr. Olcese (UCLA, Anesthesiology). The oocytes were injected with 2 ng of each α6 and β3 subunit cRNA alone or together with 10 ng δ cRNA. Currents were measured 5–10 days after injection by two electrode voltage clamp using an Axoclamp 2B amplifier and pCLAMP software. Drug solutions were applied in ND96 (in mM 96 NaCl, 2 KCl, 1.8 CaCl2, 1 MgCl2, 5 HEPES pH 7.4) by gravity perfusion with bath exchange time of about 2 s. Muscimol was prepared as an aqueous 100 mM stock solution.
# [2] = target: T2, recombinant α4β3 receptors (Homo sapiens, UniProt P28472+P48169); assay: Muscimol currents, two electrode voltage clamp in Xenopus oocytes, α4β3; assay type: cell-based; details: α4β3‐injected oocytes, without δ
# T2 construct: expressed in transfected cells; host or cells: Xenopus laevis oocytes injected with cRNA
# T2 sequence (P48169 36-554): as the sequence (P48169 36-554) above
# T2 sequence (P28472 26-473): as the sequence (P28472 26-473) above
# Excerpt: as §1
# [3] = system: different GABAAR subtypes; assay: Affinity of muscimol compared with GABA across GABAAR subtypes; details: across the board for different GABAAR subtypes
# α4β3δ receptors [4] = target: α4β3δ receptors; set-up: method as in Mortensen et al. 2010; details: recombinantly expressed α4β3δ receptors, ref Mortensen et al. 2010; read-out: muscimol EC50; cited from earlier work
# α6β3δ receptors = target: α6β3δ receptors; set-up: method as in Stórustovu and Ebert 2006; details: recombinantly expressed α6β3δ receptors, ref Stórustovu and Ebert 2006; read-out: muscimol EC50; cited from earlier work
# α4β3δ receptors [5] = target: α4β3δ receptors; set-up: method as in Stórustovu and Ebert 2006; details: recombinantly expressed α4β3δ receptors, ref Stórustovu and Ebert 2006; read-out: muscimol EC50; cited from earlier work
# α1βγ2 GABAARs = system: α1βγ2 GABAARs; set-up: method as in Karim et al. 2013; details: ref Karim et al. 2013; cited from earlier work
smiles,measurement,setting,value
NCc1cc(=O)[nH]o1 [muscimol],EC50,"[1]; α4β3δ in Xenopus oocytes, estimated/approximate, read-out: EC50 of the high‐muscimol affinity (slowly deactivating) current component",0.001 to 0.002 µM
same,threshold muscimol concentration evoking currents,[1]; α4β3δ‐injected oocytes,0.1 nM
same,threshold muscimol concentration evoking currents,[2],about 30 nM
same,higher affinity than GABA,[3],100–1000 times
same,EC50,α4β3δ receptors [4],0.2 µM
same,EC50,α6β3δ receptors,0.16 µM
same,EC50,α4β3δ receptors [5],2.28 µM
same,EC50,α1βγ2 GABAARs,~1 µM
